This is an account of results in patent US20230159469A1, “NOVEL PHTHALAZINE DERIVATIVE HAVING ECTONUCLOEOTIDE PYROPHOSPHATASE/PHOSPHODIESTE RASE INHIBITORY ACTIVITY, AND USE THEREOF” (TXINNO BIOSCIENCE INC., priority 2020, published 2023).

Counter-ions that a name gives are not always drawn.

The assay addresses T1, human recombinant ENPP1 (Homo sapiens, UniProt P22413).
T1 construct: purchased R & D systems
T1 sequence (P22413 1-925): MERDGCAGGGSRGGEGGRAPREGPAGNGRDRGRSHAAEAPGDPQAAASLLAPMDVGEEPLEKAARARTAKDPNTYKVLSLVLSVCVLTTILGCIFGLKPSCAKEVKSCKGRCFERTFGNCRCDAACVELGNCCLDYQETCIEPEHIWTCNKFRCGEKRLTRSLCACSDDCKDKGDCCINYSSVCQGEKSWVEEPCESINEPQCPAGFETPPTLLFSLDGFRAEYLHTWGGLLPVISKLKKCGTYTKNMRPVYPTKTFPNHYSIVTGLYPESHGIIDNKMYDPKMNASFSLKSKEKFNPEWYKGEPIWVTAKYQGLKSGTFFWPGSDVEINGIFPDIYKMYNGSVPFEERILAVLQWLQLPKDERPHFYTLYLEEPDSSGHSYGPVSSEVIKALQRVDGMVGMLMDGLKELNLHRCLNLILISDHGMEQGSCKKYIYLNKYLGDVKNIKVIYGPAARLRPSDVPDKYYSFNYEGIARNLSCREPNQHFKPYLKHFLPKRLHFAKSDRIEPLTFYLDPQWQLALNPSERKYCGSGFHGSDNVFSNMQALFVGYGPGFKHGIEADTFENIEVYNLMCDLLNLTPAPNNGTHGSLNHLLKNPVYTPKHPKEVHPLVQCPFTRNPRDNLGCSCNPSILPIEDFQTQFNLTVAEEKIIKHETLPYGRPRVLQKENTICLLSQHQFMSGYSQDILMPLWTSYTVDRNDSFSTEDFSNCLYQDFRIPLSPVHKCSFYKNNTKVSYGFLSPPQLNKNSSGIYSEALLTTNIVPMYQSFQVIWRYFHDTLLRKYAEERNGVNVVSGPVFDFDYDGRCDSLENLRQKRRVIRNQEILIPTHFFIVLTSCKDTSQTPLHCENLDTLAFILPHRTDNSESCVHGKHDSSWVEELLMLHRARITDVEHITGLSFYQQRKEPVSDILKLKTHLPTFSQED
The assay is described as follows: ENPP1 enzyme assay with cGAMP substrate (AMP-Glo luminescence). The format is biochemical. The conditions noted are these: human recombinant ENPP1 3 ng/reaction, cGAMP 5 μM, 37° C. 90 minutes, read-out: Enzymatic activity (ENPP1 IC50). Summed up:
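Human ENPP1 hydrolysis of 5 μM cGAMP was run for 90 min at 37° C in 50 mM Tris pH 8.5, 250 mM NaCl, 0.5 mM CaCl2, 1 μM ZnCl2, 5% glycerol, 1% DMSO. AMP product was quantified by AMP-Glo luminescence; IC50 came from 3-parameter fits of % residual activity, averaged over at least two runs.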

Broadly, the IC50 is the concentration at which inhibition is half-maximal. As to `COc1cc2c(-c3ccc4c(c3)CCN(S(N)(=O)=O)C4)n[nH]c(=O)c2cc1OC` [Compound No. 130, 6-(6,7-dimethoxy-4-oxo-3,4-dihydrophthalazin-1-yl)-3,4-dihydroisoquinoline-2(1H)-sulfonamide hydrochloride], the IC50 lay within 1 to 10 µM.

As for `COc1cc2c(-c3ccc4c(c3)CCN(S(N)(=O)=O)C4)nn(C)c(=O)c2cc1OC` [Compound No. 131, 6-(6,7-dimethoxy-3-methyl-4-oxo-3,4-dihydrophthalazin-1-yl)-3,4-dihydroisoquinoline-2(1H)-sulfonamide hydrochloride], the concentration for half-maximal inhibition (IC50) is 1 to 10 µM.

With `CC(C)(C)OC(=O)NCC1CCN(c2n[nH]c(=O)c3ccccc23)CC1` [Compound No. 132, tert-butyl ((1-(4-oxo-3,4-dihydrophthalazin-1-yl)piperidin-4-yl)methyl)carbamate], the IC50 is greater than 10 µM.

Consider `COc1cc2c(N3CCC(CNC(=O)OC(C)(C)C)CC3)n[nH]c(=O)c2cc1OC` [Compound No. 133, tert-butyl ((1-(6,7-dimethoxy-4-oxo-3,4-dihydrophthalazin-1-yl)piperidin-4-yl)methyl)carbamate], for which the IC50 is greater than 10 µM.

On to `NCC1CCN(c2n[nH]c(=O)c3ccccc23)CC1` [Compound No. 134, 4-(4-(aminomethyl)piperidin-1-yl)phthalazin-1(2H)-one hydrochloride], for which the IC50 is 1 to 10 µM.

For the compound `COc1cc2c(N3CCC(CN)CC3)n[nH]c(=O)c2cc1OC` [Compound No. 135, 4-(4-(aminomethyl)piperidin-1-yl)-6,7-dimethoxyphthalazin-1(2H)-one hydrochloride], the IC50 was greater than 10 µM.

On to `CC(C)(C)OC(=O)NS(=O)(=O)NCC1CCN(c2n[nH]c(=O)c3ccccc23)CC1` [Compound No. 136, tert-butyl N-((1-(4-oxo-3,4-dihydrophthalazin-1-yl)piperidin-4-yl)methyl)sulfamoyl carbamate], for which the half-maximal inhibitory concentration (IC50) is greater than 10 µM.

Turning to `COc1cc2c(N3CCC(CNS(=O)(=O)NC(=O)OC(C)(C)C)CC3)n[nH]c(=O)c2cc1OC` [Compound No. 137, tert-butyl N-((1-(6,7-dimethoxy-4-oxo-3,4-dihydrophthalazin-1-yl)piperidin-4-yl)methyl)sulfamoyl carbamate], the IC50 was greater than 10 µM.

For `NS(=O)(=O)NCC1CCN(c2n[nH]c(=O)c3ccccc23)CC1` [Compound No. 138, N-((1-(4-oxo-3,4-dihydrophthalazin-1-yl)piperidin-4-yl)methyl)sulfamide hydrochloride], the half-inhibitory concentration (IC50) is less than 1 µM.

With `COc1cc2c(N3CCC(CNS(N)(=O)=O)CC3)n[nH]c(=O)c2cc1OC` [Compound No. 139, N-((1-(6,7-dimethoxy-4-oxo-3,4-dihydrophthalazin-1-yl)piperidin-4-yl)methyl)sulfamide hydrochloride], the IC50 was less than 1 µM.

As to `COc1cc2c(Nc3ccc(NS(N)(=O)=O)cc3)nn(C)c(=O)c2cc1OC` [Compound No. 140, N-(4-(6,7-dimethoxy-3-methyl-4-oxo-3,4-dihydrophthalazin-1-yl)-amino)phenyl)sulfamide hydrochloride], the IC50 is greater than 10 µM.

As to `COc1cc2c(Nc3cccc(NS(N)(=O)=O)c3)nn(C)c(=O)c2cc1OC` [Compound No. 141, N-(3-(6,7-dimethoxy-3-methyl-4-oxo-3,4-dihydrophthalazin-1-yl)-amino)phenyl)sulfamide hydrochloride], the IC50 was 1 to 10 µM.

With `NS(=O)(=O)NCCC1CCN(c2n[nH]c(=O)c3ccccc23)CC1` [Compound No. 142, N-(2-(1-(4-oxo-3,4-dihydrophthalazin-1-yl)piperidin-4-yl)ethyl)sulfamide trifluoroacetic acid], the IC50 was greater than 10 µM.

Turning to `O=c1[nH]nc(Cc2ccccc2)c2ccccc12` [Compound No. 143, 4-benzylphthalazin-1(2H)-one], the IC50 is greater than 10 µM.

Take `COc1cc2c(Cc3ccccc3)n[nH]c(=O)c2cc1OC` [Compound No. 144, 4-benzyl-6,7-dimethoxyphthalazin-1(2H)-one]: the IC50 was greater than 10 µM.

As for `COc1cc2c(Cc3cccc(NC(=O)OC(C)(C)C)c3)n[nH]c(=O)c2cc1OC` [Compound No. 145, tert-butyl (3-((6,7-dimethoxy-4-oxo-3,4-dihydrophthalazin-1-yl)methyl)phenyl)carbamate], the IC50 was greater than 10 µM.

Regarding `COc1cc2c(Cc3cccc(NC(=O)OC(C)(C)C)c3)nn(C)c(=O)c2cc1OC` [Compound No. 146, tert-butyl (3-((6,7-dimethoxy-3-methyl-4-oxo-3,4-dihydrophthalazin-1-yl)methyl)phenyl)carbamate], the IC50 is greater than 10 µM.

Take `CC(C)(C)OC(=O)Nc1ccc(Cc2n[nH]c(=O)c3ccccc23)cc1` [Compound No. 147, tert-butyl (4-((4-oxo-3,4-dihydrophthalazin-1-yl)methyl)phenyl)carbamate]: the IC50 was greater than 10 µM.

In the case of `Cn1nc(Cc2ccc(NC(=O)OC(C)(C)C)cc2)c2ccccc2c1=O` [Compound No. 148, tert-butyl (4-((3-methyl-4-oxo-3,4-dihydrophthalazin-1-yl)methyl)phenyl)carbamate], the IC50 was greater than 10 µM.

On to `COc1cc2c(Cc3ccc(NC(=O)OC(C)(C)C)cc3)n[nH]c(=O)c2cc1OC` [Compound No. 149, tert-butyl (4-((6,7-dimethoxy-4-oxo-3,4-dihydrophthalazin-1-yl)methyl)phenyl)carbamate], for which the IC50 is greater than 10 µM.

For `COc1cc2c(Cc3ccc(NC(=O)OC(C)(C)C)cc3)nn(C)c(=O)c2cc1OC` [Compound No. 150, tert-butyl (4-((6,7-dimethoxy-3-methyl-4-oxo-3,4-dihydrophthalazin-1-yl)methyl)phenyl)carbamate], the IC50 is greater than 10 µM.

Turning to `CN(C(=O)OC(C)(C)C)c1ccc(Cc2n[nH]c(=O)c3ccccc23)cc1` [Compound No. 151, tert-butyl (4-((4-oxo-3,4-dihydrophthalazin-1-yl)methyl)phenyl) (methyl)carbamate], the IC50 was greater than 10 µM.

As to `COc1cc2c(Cc3ccc(N(C)C(=O)OC(C)(C)C)cc3)n[nH]c(=O)c2cc1OC` [Example 152, tert-butyl (4-((6,7-dimethoxy-4-oxo-3,4-dihydrophthalazin-1-yl)methyl)phenyl) (methyl) carbamate], the IC50 is greater than 10 µM.

`COc1cc2c(Cc3ccc4c(c3)CCN4C(=O)OC(C)(C)C)nn(C)c(=O)c2cc1OC` [Example 155]: the IC50 was greater than 10 µM.

As to `COc1cc2c(Cc3cccc(N)c3)n[nH]c(=O)c2cc1OC` [Example 156, 4-(3-aminobenzyl)-6,7-dimethoxyphthalazin-1(2H)-one hydrochloride], the IC50 was greater than 10 µM.

Take `COc1cc2c(Cc3cccc(N)c3)nn(C)c(=O)c2cc1OC` [Example 157, 4-(3-aminobenzyl)-6,7-dimethoxy-2-methylphthalazin-1(2H)-one hydrochloride]: the IC50 was greater than 10 µM.

In the case of `Nc1ccc(Cc2n[nH]c(=O)c3ccccc23)cc1` [Example 158, 4-(4-aminobenzyl)-phthalazin-1(2H)-one hydrochloride], the IC50 is greater than 10 µM.

As for `Cn1nc(Cc2ccc(N)cc2)c2ccccc2c1=O` [Example 159, 4-(4-aminobenzyl)-2-methylphthalazin-1(2H)-one hydrochloride], the IC50 is greater than 10 µM.

With `COc1cc2c(Cc3ccc(N)cc3)n[nH]c(=O)c2cc1OC` [Example 160, 4-(4-aminobenzyl)-6,7-dimethoxyphthalazin-1(2H)-one hydrochloride], the IC50 was greater than 10 µM.

With `COc1cc2c(Cc3ccc(N)cc3)nn(C)c(=O)c2cc1OC` [Example 161, 4-(4-aminobenzyl)-6,7-dimethoxy-2-methylphthalazin-1(2H)-one hydrochloride], the IC50 is greater than 10 µM.

Consider `CNc1ccc(Cc2n[nH]c(=O)c3ccccc23)cc1` [Example 162, 4-(4-(methylamino)benzyl)phthalazin-1(2H)-one hydrochloride], for which the IC50 is greater than 10 µM.

Take `CNc1ccc(Cc2n[nH]c(=O)c3cc(OC)c(OC)cc23)cc1` [Example 163, 6,7-dimethoxy-4-(4-(methylamino)benzyl)phthalazin-1(2H) -one hydrochloride]: the IC50 is greater than 10 µM.

On to `CNc1ccc(Cc2nn(C)c(=O)c3cc(OC)c(OC)cc23)cc1` [Example 164, 6,7-dimethoxy-2-methyl-4-(4-(methylamino)benzyl)phthalazin-1(2H)-one hydrochloride], for which the IC50 is greater than 10 µM.
